Data taken from publication PMC10706121, “Bioactive Polyketides from the Natural Complex of the Sea Urchin-Associated Fungi Penicillium sajarovii KMM 4718 and Aspergillus protuberus KMM 4747” (International Journal of Molecular Sciences, 2023).
“Also recorded” adds a separate entry of the source. Where two headings read alike, the source gives them in different places.

How the values were obtained:
[1] = target: T1, urease from Canavalia ensiformis (Canavalia ensiformis, UniProt P07374); experiment: Urease inhibition assay (indophenol method, cell-free); format: biochemical; conditions: for effect on urease activity: at concentrations of up to 100 µM
T1 construct: purchased Sigma
Method: A reaction mixture consisting of 25 µL of enzyme solution (urease from Canavalia ensiformis, Sigma, 1U final concentration) and 5 µL of test compounds dissolved in water (10–300.0 µM final concentration) was preincubated at 37 °C for 60 min in 96-well plates. Then, 55 µL of phosphate-buffered solution with […] of urea was added to each well and incubated at 37 °C for 10 min. The urease inhibitory activity was estimated by determining ammonia production using the indophenol method. Briefly, 45 µL of phenol reagent (1% w/v phenol and 0.005% w/v sodium nitroprusside) and 70 µL of alkali reagent (0.5% w/v NaOH and 0.1% active chloride NaClO) were added to each well. The absorbance was measured after 50 min at 630 nm using a MultiskanFS microplate reader (Thermo Scientific Inc., Beverly, MA, USA). All reactions were performed in triplicate in a final volume of 200 µL. The pH was maintained at 7.3–7.5 in all assays. DMSO 5% was used as a positive control.

Candida albicans KMM 455 = experiment: Antimicrobial activity, inhibition of microbial growth (OD620); format: cell-based; conditions: for inhibition at 100 µM: Candida albicans
Method: (§1) The yeast-like fungi of Candida albicans KMM 455 and bacterial strains Staphylococcus aureus ATCC 21027 and Escherichia coli VKPM (B-7935) (Collection of Marine Microorganisms PIBOC FEB RAS) were cultured on solid-medium Mueller Hinton broth with agar (16.0 g/L) in a Petri dish at 37 °C for 24 h.
(§2) The assays were performed in 96-well microplates in appropriate Mueller Hinton broth. Each well contained 90 µL of bacterial or of a yeast-like fungi suspension (10^9 CFU/mL). Then, 10 µL of a compound diluted at concentrations ranging from 1.5 to 100.0 µM using a 2-fold dilution was added (DMSO concentration < 1%). Culture plates were incubated overnight at 37 °C, and the OD620 was measured using a Multiskan FS spectrophotometer (Thermo Scientific Inc., Beverly, MA, USA). The antibiotic gentamicin and antifungal agent nitrofungin were used as positive controls at 1 mg/mL; 1% DMSO in PBS served as a negative control.

[2] = system: Escherichia coli VKPM (B-7935); experiment: as above; format: cell-based; conditions: for inhibition at 100 µM: Escherichia coli, read-out: Inhibition of Microbial Growth, E. coli
Method: as §1, §2

[3] = system: Staphylococcus aureus ATCC 21027; experiment: as above; format: cell-based; conditions: for inhibition at 100 µM: Staphylococcus aureus
Method: as §1, §2

[4] = Cell viability assay (MTT), cytotoxic activity; format: cell-based, human; conditions: 24 h, MTT; for viability at 24 h, 10 µM / viability at 24 h, 100 µM: percent of control
Method: (§3) The HepG2 and H9c2 cells were cultured in DMEM medium (Biolot, St. Petersburg, Russia) containing 10% fetal bovine serum (Biolot, St. Petersburg, Russia) and 1% penicillin/streptomycin (Biolot, St. Petersburg, Russia) at 37 °C in a humidified atmosphere with 5% (v/v) CO2.
(§4) The HepG2 and H9c2 cells were seeded at concentrations of 5× 10^3 and 3×10^3 cell/well, respectively, and the experiments were started after 24 h. The compounds at concentrations up to 100 µM were added into the wells for 24 h, and the viability of the cells was measured by an MTT (3-(4,5-dimethylthiazol-2-yl)-2,5-diphenyltetrazolium bromide) assay, which was performed according to the manufacturer’s instructions (Sigma-Aldrich, Munich, Germany). All compounds were dissolved with DMSO so that the final concentration of DMSO in the cell culture was not more than 1%. Moreover, DMSO was used as a control. The absorbance of the resulting solution was measured at 570 nm with a microplate reader MultiscanFC (ThermoLabsystems Inc., Beverly, MA, USA). The results are presented as a percent of the control data and calculated IC50.

[5] = system: human hepatocarcinoma HepG2 cells; experiment: Cell viability assay (MTT), cytotoxic activity; format: cell-based; conditions: for decrease of HepG2 cell viability: 100 µM; for IC50: 24 h, MTT, read-out: HepG2 IC50 (cytotoxic effect)
Method: as §3, §4

[6] = system: normal rat cardiomyocyte H9c2 cells; experiment: Cell viability assay (MTT), cytotoxic activity; format: cell-based; conditions: for decrease of H9c2 cell viability: 100 µM; for IC50: 24 h, MTT, read-out: H9c2 IC50 (cytotoxic effect)
Method: as §3, §4

[7] = system: S. aureus-infected H9c2 cardiomyocytes; experiment: Staphylococcus aureus-induced infection of H9c2 cardiomyocytes (in vitro model of infectious myocarditis, MTT); format: cell-based, rat; conditions: 1 and 10 µM
Method: The H9c2 cells were seeded at concentrations of 3 × 10^3 cell/well. After 24 h, the cell culture media was changed with an S. aureus bacterial suspension (10^2 CFU/mL) prepared in full DMEM culture media. The investigated compounds at concentrations of 1 and 10 µM were added after 1 h and the cells were incubated for 48 h. The S. aureus suspension with compounds at the same concentrations was used as a control. MTT reagent was added to all wells and formazan production was detected with the microplate reader MultiscanFC (ThermoLabsystems Inc., Beverly, MA, USA). The viability of S. aureus-infected cells was calculated as:Viability, relative units = (OD cells+Sa +comp − OD Sa+comp)/(OD cells+Sa − OD Sa)

[8] = KMM455, compounds tested at 100 µM, read-out: Inhibition of Microbial Growth, C. albicans
[9] = ATCC21027, compounds tested at 100 µM, read-out: Inhibition of Microbial Growth, S. aureus
[10] = human, HepG2 cells (human hepatocarcinoma), read-out: HepG2 IC50 (cytotoxic effect)
[11] = human, HepG2 hepatocarcinoma cells
[12] = rat, H9c2 cells (normal rat cardiomyocytes), read-out: H9c2 IC50 (cytotoxic effect)
[13] = KMM455, read-out: Inhibition of Microbial Growth, C. albicans
[14] = ATCC21027, read-out: Inhibition of Microbial Growth, S. aureus
[15] = human, read-out: HepG2 Cell Viability
[16] = human, read-out: HepG2 IC50 (cytotoxic effect)
[17] = rat, read-out: H9c2 Cell Viability
[18] = rat, read-out: H9c2 IC50 (cytotoxic effect)

T1 sequence (P07374 whole entry, looked up): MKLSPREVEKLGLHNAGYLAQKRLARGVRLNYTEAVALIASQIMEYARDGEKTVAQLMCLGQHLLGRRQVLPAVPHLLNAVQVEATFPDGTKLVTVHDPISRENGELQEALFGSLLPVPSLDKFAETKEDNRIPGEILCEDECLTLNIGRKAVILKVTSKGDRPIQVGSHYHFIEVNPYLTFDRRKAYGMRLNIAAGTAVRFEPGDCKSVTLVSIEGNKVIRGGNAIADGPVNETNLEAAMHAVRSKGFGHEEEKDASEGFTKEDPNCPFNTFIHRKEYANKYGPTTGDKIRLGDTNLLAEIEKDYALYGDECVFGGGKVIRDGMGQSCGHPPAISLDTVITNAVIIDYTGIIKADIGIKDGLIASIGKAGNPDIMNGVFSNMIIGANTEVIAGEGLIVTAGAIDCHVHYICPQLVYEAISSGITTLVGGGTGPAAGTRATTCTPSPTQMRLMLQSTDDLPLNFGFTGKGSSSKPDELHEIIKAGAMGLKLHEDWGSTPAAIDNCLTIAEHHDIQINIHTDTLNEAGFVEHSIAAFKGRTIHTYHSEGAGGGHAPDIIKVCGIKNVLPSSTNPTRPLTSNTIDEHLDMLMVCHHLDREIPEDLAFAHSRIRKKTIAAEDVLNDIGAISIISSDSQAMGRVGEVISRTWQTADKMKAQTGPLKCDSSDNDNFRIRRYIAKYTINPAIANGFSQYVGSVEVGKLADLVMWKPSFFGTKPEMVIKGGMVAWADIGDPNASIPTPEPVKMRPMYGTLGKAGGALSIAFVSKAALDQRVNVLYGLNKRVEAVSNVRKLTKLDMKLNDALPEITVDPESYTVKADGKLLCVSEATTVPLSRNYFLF

| Structure (SMILES) | IC50 [1] | inhibition at 100 µM (Candida albicans KMM 455; [8]) | inhibition at 100 µM ([2]; compounds tested at 100 µM) | inhibition at 100 µM [3, 9] | IC50 at 24 h [4, 10] | viability at 24 h, 10 µM [4, 11] | viability at 24 h, 100 µM [4, 11] | viability at 24 h, 10 µM ([4]; rat, H9c2 cardiomyocyte cells) | viability at 24 h, 100 µM ([4]; rat, H9c2 cardiomyocyte cells) | IC50 at 24 h [4, 12] | decrease of HepG2 cell viability [5] | decrease of H9c2 cell viability [6] | effect on urease activity [1] | effect on the viability of S. aureus-infected H9c2 cardiomyocytes [7] | also measured |
| --- | --- | --- | --- | --- | --- | --- | --- | --- | --- | --- | --- | --- | --- | --- | --- |
| Cc1cc(O)cc2oc3cc(O)cc(O)c3c(=O)c12 [Compound 5, norlichexanthone] | 15.3 ± 2.1 µM | < 10% | 27.9 ± 3.3% | 20.8 ± 6.5% | ~100 µM | 88 ± 4.9% | 52.6 ± 3% | 86.3 ± 6.3% | 49 ± 1.6% | ~100 µM | 47.4% | 51.0% |  |  | IC50 [5]: > 100 µM; IC50 [6]: 97.4 ± 2.2 µM |
| Cc1cc(O)c(O)c2oc3cc(O)cc(O)c3c(=O)c12 [Compound 7, 1,3,5,6-tetrahydroxy-8-methylxanthone] | 100 µM | 15.4 ± 2.1% | < 10% | < 10% | ~100 µM | 77.1 ± 1.4% | 57.4 ± 4.2% | 98 ± 0.9% | 52.9 ± 1.5% | ~100 µM | 42.6 µM |  |  |  | IC50 [5]: > 100 µM; IC50 [6]: > 100 µM |
| Cc1cc(O)cc2oc(C[C@H](C)O)cc(=O)c12 [Compound 3, (2′S)-7-hydroxy-2-(2′-hydroxypropyl)-5-methylchromone] | > 100 µM | < 10% | < 10% | 17.7 ± 0.3% | > 100 µM | 91.7 ± 1.5% | 101 ± 3.9% | 96.4 ± 2.1% | 74.3 ± 3.2% | > 100 µM |  | 25.7% | no effect; also recorded: did not show any effect |  |  |
| COC1=CC(=O)C[C@@H](C)[C@]12Oc1c(Cl)c(O)cc(OC)c1C2=O [Compound 9, 6-O-desmethylgriseofulvin] | > 100 µM | < 10% | ~23% | ~23% | > 100 µM | 91.5 ± 6.8% | 84.2 ± 3.2% | 97.4 ± 8.1% | 92.9 ± 3.7% | > 100 µM |  |  | no effect; also recorded: did not show any effect |  | Inhibition of Microbial Growth, E. coli ([2]; compounds tested at 100 µM, 100 µM): 23.4 ± 1.8% |
| COC1=CC(=O)C[C@@H](C)[C@]12Oc1c(Cl)c(OC)cc(OC)c1C2=O [Compound 8, griseofulvin, reference compound] | 10.1 ± 0.6 µM | < 10% | 16.8 ± 4.5% | 11.5 ± 4.3% | 77.8 ± 1.3 µM | 81 ± 2.1% | 39.9 ± 0.7% | 89.8 ± 2.7% | 71.6 ± 3.7% | > 100 µM | 60.1% | 28.4% |  |  |  |
| CC1=CC(=O)OCC1 [Compound 11, 5,6-dihydro-4-methyl-2H-pyran-2-one] | 11.4 ± 1 µM |  |  |  |  |  |  |  |  |  | 23.4% |  |  | did not show any statistical effect | inhibition at 100 µM (Candida albicans KMM 455; [13]): < 10%; Inhibition of Microbial Growth, C. albicans (Candida albicans KMM 455; compounds tested at 100 µM): did not affect; inhibition at 100 µM [2]: < 10%; inhibition at 100 µM [3, 14]: < 10%; viability at 24 h, 10 µM [4, 15]: 87.5 ± 5.3%; viability at 24 h, 100 µM [4, 15]: 76.6 ± 2.4%; IC50 at 24 h [4, 16]: > 100 µM; viability at 24 h, 10 µM [4, 17]: 95.9 ± 0.6%; viability at 24 h, 100 µM [4, 17]: 89 ± 2.9%; IC50 at 24 h [4, 18]: > 100 µM |
| COc1cc(O)c2c(=O)c3c(C)cc(O)cc3oc2c1 [Compound 6, griseoxanthone C] | 97.3 ± 1.6 µM |  |  |  |  |  |  |  |  |  | 72.9% | 36.7% |  | did not show any statistical effect | inhibition at 100 µM (Candida albicans KMM 455; [13]): < 10%; Inhibition of Microbial Growth, C. albicans (Candida albicans KMM 455; compounds tested at 100 µM): did not affect; inhibition at 100 µM [2]: < 10%; inhibition at 100 µM [3, 14]: < 10%; viability at 24 h, 10 µM [4, 15]: 85.7 ± 5.7%; viability at 24 h, 100 µM [4, 15]: 27.1 ± 2.4%; IC50 at 24 h [4, 16]: 64.7 ± 0.8 µM; viability at 24 h, 10 µM [4, 17]: 86 ± 4.8%; viability at 24 h, 100 µM [4, 17]: 63.3 ± 1.4%; IC50 at 24 h [4, 18]: > 100 µM |
| COC1=CC(=O)c2c(O)cc(O)cc2[C@@]1(C)O [Compound 1, sajaroketide A] | > 100 µM | < 10% | 25.4 ± 1% | 35.1 ± 0.9% | > 100 µM | 108 ± 3.2% | 107 ± 3.9% | 83.6 ± 4.4% | 65.4 ± 4.8% | > 100 µM |  | 34.6% | no effect; also recorded: very poor |  |  |
| COC1=CC(=O)c2c(O)cc(OC)cc2[C@@]1(C)O [Compound 2, sajaroketide B] | 98.5 ± 0.8 µM | < 10% | < 10% | < 10% | > 100 µM | 87.3 ± 4.1% | 76.9 ± 2.1% | 96 ± 1.9% | 79 ± 3.4% | > 100 µM |  | 21.0% |  | did not show any statistical effect | Inhibition of Microbial Growth, E. coli ([2]; compounds tested at 100 µM): inactive; Inhibition of Microbial Growth, S. aureus ([3]; compounds tested at 100 µM): inactive |
